# Experimental data: US20250250267A1, “NITROGEN-CONTAINING BRIDGED HETEROCYCLIC COMPOUND, PREPARATION METHOD THEREFOR, AND MEDICAL USE THEREOF” (Jiangsu Hengrui Pharmaceuticals Co., Ltd., priority 2020, published 2025)
# Tests used:
# [1] = system: human complement alternative pathway; assay: Inhibition of human complement alternative pathway (zymosan-activated human serum with EGTA, C5b-9 formation); type: biochemical; settings: zymosan A, C5b-9 readout
# Excerpt: The alternative pathway can be activated by zymosan. The extent of activation of the alternative pathway can be evaluated by assaying the formation of the C5b-9 complex. […] Since the activation of the two pathways requires both magnesium and calcium ions, and the alternative pathway requires magnesium ions only, after chelation with the calcium ion chelator EGTA, the alternative pathway is not inhibited, while the classical pathway and the lectin pathway are. After chelation with EDTA, the three pathways are all inhibited. Therefore, the inhibitory effects of the small-molecule compounds on the alternative pathway can be evaluated by activating the complement alternative pathway in human serum with zymosan in the presence of the EGTA chelator and assaying the formation of the C5b-9 complex.
# Zymosan A powder was resuspended at 10 mg/mL in TBS solution and activated by heating at 100° C. for 2 h. After the activation, the suspension was centrifuged at 4000 rpm for 30 min, and the supernatant was discarded. The residue was resuspended in TBS to form a 50 mg/mL suspension. The suspension was aliquoted and stored in a −20° C. freezer. The day before the experiment, the activated zymosan A solution was diluted to 1 mg/mL with the carbonic acid buffer (pH 9.5) and added to a 96-well adsorption black plate at 100 μL/well, and the plate was coated at 4° C. overnight.
# A 100 mM Na2CO3 solution and a 100 mM NaHCO3 solution were prepared and mixed in a ratio of Na2CO3 to NaHCO3 of 3:7 (v/v) to adjust the pH to 9.5. The mixture was stored at room temperature for later use.
# Activation reactions of the complement alternative pathway: Human serum was 5-fold diluted with PBS solution to form a 20% serum solution, and the solution was placed on ice for later use. 20 mM test compounds dissolved in 100% DMSO were serially diluted with 100% DMSO to 2000, 500, 125, 31.25, 7.8125, 0.488281, 0.12207, 0.030518, and 0.007629 μM, with the blank well containing 100% DMSO. The compounds and 100% DMSO were then 20-fold diluted in 2× EGTA reaction buffer (4.2 mM HEPES, 0.15 mM CaCl2), 140 mM NaCl, 4.5 mM MgCl2, 0.1% gelatin, 20 mM EGTA). Meanwhile, 100% DMSO was 20-fold diluted in 2× EDTA reaction buffer (4.2 mM HEPES, 0.15 mM CaCl2), 140 mM NaCl, 4.5 mM MgCl2, 0.1% gelatin, 20 mM EDTA) as a negative control well. 40-μL serum-EGTA reaction mixtures were prepared by mixing well 20 μL of 20% human serum, 4 μL of the above test compounds or DMSO diluted in 2× EGTA reaction buffer, and 16 μL of 2× EGTA reaction buffer. Serum-EGTA-DMSO was used as a blank control. The mixtures were incubated at room temperature for 30 min. In the negative control well, a 40-μL serum-EDTA reaction mixture was prepared by mixing well 20 μL of 20% human serum, 4 μL of the above DMSO diluted in 2× EDTA reaction buffer, and 16 μL of 2× EDTA reaction buffer. The mixture was incubated at room temperature for 30 min. The 96-well adsorption black plate coated with zymosan A one day ahead of time was washed 3 times with 300 μL/well TBST (0.05% tween 20) solution, and the serum-EGTA-test compound reaction mixtures, the blank control well, and the serum-EDTA-DMSO reaction mixture (negative control well) were added at 25 L/well. The mixtures were reacted at 37° C. for 40 min. The plate was washed 3 times with 300 μL/well TBST solution, the StartingBlock™ T20 (TBS) blocking buffer was added at 300 μL/well, and the plate was incubated at 37° C. for 15 min.
# [2] = system: passive heymann nephritis rats; assay: Therapeutic effects on Heymann nephritis in rats induced by sheep anti-rat Fx1A serum; type: in vivo; settings: for decrease in rat serum iC3b+C3d compared to the model group: serum day 15; for decrease in the ratio of total protein/creatinine in rat urine compared to the model group: day 14
# Excerpt: Experimental animals: laboratory male SD rats, provided by Vital River Laboratory Animal Technology Co., Ltd. (production license number: SCXK (Zhejiang) 2019-0001; animal certificate number: 20210401Abzz0619000322; weighing 180-200 g at purchase).
# After the acclimatization, the male SD rats were grouped as follows according to total protein in urine and body weight in the 2 days before the experiment:
# On day 0 of the experiment, the model group and administration groups were given a single tail vein injection of Fx1A serum (5 mL/kg), and the normal group was given a tail vein injection of normal goat serum. […] The experiment ended on day 15. Two-hour urine was collected on days 2, 4, 6, 8, 11, and 14 and assayed for creatinine and total protein. Serum was collected on day 15 for complement activation fragment (C3d+iC3b) analysis.
# The experimental data are expressed as mean±standard error (SEM). Statistical comparison was performed using Excel software t-test. The data of the model group and the data of the blank control group were analyzed and compared to judge whether a significant mathematical statistical significance exists. *P<0.05 indicates a significant difference between the model group and the blank control group, **P<0.01 indicates a highly significant difference between the model group and the blank control group, and ***P<0.001 indicates a very highly significant difference between the model group and the blank control group. #P<0.05 indicates a significant difference between an administration group and the model group, ##P<0.01 indicates a highly significant difference between an administration group and the model group, and ###P<0.001 indicates a very highly significant difference between an administration group and the model group.
# [3] = target: human complement factor B (Homo sapiens (Human), UniProt P00751); assay: biochemical
# Method: Assays for the C3a des Arg epitope generated after C3 is cleaved can be used to evaluate the efficiency of C3 being hydrolyzed, i.e., the C3bBb enzyme activity, and thereby to evaluate the effects of the compounds on the C3bBb enzyme.
# A 100 mM Na2CO3 solution and a 100 mM NaHCO3 solution were prepared and mixed in a ratio of Na2CO3 to NaHCO3 of 3:7 (v/v) to adjust the pH to 9.5. The mixture was stored at room temperature for later use. […] The compounds and 100% DMSO were then 20-fold diluted in C3 reaction buffer (PBS pH 7.4, 1 mM MgCl2, 0.05% CHAPS).
# Cleavage reactions of the C3 protein: In a 96-well low-volume white plate, 10-μL reaction systems were prepared by adding CVF:Bb (to a final concentration of 2 nM) and 1 μL of the above test compounds and DMSO diluted in C3 reaction buffer to C3 reaction buffer (PBS pH 7.4, 1 mM MgCl2, 0.05% CHAPS). The plate was incubated at room temperature for 1 h. […] Human complement factor C3 was added to the reaction systems to a final concentration of 500 nM. After they were well mixed, the mixtures were reacted in a constant-temperature incubator at 37° C. for 2 h. Among the reaction mixtures, the reaction well that contained only 500 nM human complement factor C3 was used as a negative control. To a 96-well adsorption black plate, 97 μL of the carbonic acid buffer (pH 9.5) was added, and the C3 protein cleavage reaction mixtures were added at 3 μL/well. After they were well mixed, the plate was sealed and incubated at 4° C. overnight.
# C3a des Arg assays: The plate was washed 3 times with 300 μL/well TBST (0.05% tween 20) solution, the StartingBlock™ T20 (TBS) blocking buffer was added at 300 μL/well, and the plate was incubated at 37° C. for 5 min. […] The plate was washed 3 times with 300 μL/well PBST solution, the goat anti-mouse IgG H&L (HRP) antibody was 1:5000 diluted in PBST solution and added at 100 μL/well, and the plate was incubated at 37° C. for 30 min. […]
# The inhibition rate was calculated using the following formula:
# [4] = system: patients with PNH and active hemolysis; settings: cited from earlier work
# IgAN patients = settings: 4 IgAN patients, end of phase 2; cited from earlier work
molecule,measurement,setting,value
"CCO[C@H]1C[C@H]2CC[C@](c3ccc(C(=O)O)cc3)(C1)N2Cc1c(OC)cc(C)c2[nH]ccc12 (relative stereo) [Example 1, (±)-rel-4-((1S,3S,5R)-3-Ethoxy-8-((5-methoxy-7-methyl-1H-indol-4-yl)methyl)-8-azabicyclo[3.2.1]octan-1-yl)benzoic acid]",IC50,[1],43.2 nM
"CCO[C@H]1C[C@H]2CCC(c3ccc(C(=O)O)cc3)(C1)N2Cc1c(OC)cc(C)c2[nH]ccc12 (stereo in doubt) [Example 1-1, 4-((1S,3S,5R)-3-Ethoxy-8-((5-methoxy-7-methyl-1H-indol-4-yl)methyl)-8-azabicyclo[3.2.1]octan-1-yl)benzoic acid]",IC50,[1],27 nM
same,decrease in rat serum iC3b+C3d compared to the model group,[2]; 10 mg/kg orally twice daily,76.2%
same,decrease in rat serum iC3b+C3d compared to the model group,[2]; 30 mg/kg orally twice daily,105.5%
same,decrease in rat serum iC3b+C3d compared to the model group,[2]; 90 mg/kg orally twice daily,108.7%
"CCO[C@H]1C[C@H]2CCC(c3ccc(C(=O)O)cc3)(C1)N2Cc1c(C)cc(C)c2[nH]ccc12 (stereo in doubt) [Example 3, 4-((1S,3S,5R)-8-((5,7-Dimethyl-1H-indol-4-yl)methyl)-3-ethoxy-8-azabicyclo[3.2.1]octan-1-yl)benzoic acid]",IC50,[1],49.8 nM
same,IC50,[3],4.9 nM
"CCO[C@H]1C[C@H]2CCC(c3ccc(C(=O)O)cc3)(C1)N2Cc1c(C2CC2)cc(C)c2[nH]ccc12 (stereo in doubt) [Example 4, 4-((1S,3S,5R)-8-((5-Cyclopropyl-7-methyl-1H-indol-4-yl)methyl)-3-ethoxy-8-azabicyclo[3.2.1]octan-1-yl)benzoic acid]",IC50,[1],50.6 nM
same,IC50,[3],1.6 nM
"CCO[C@H]1C[C@H]2CCC(c3ccc(C(=O)O[C@@H]4O[C@H](C(=O)O)[C@@H](O)[C@H](O)[C@H]4O)cc3)(C1)N2Cc1c(OC)cc(C)c2[nH]ccc12 (stereo in doubt) [Example 5, (2S,3S,4S,5R,6S)-6-((4-((1S,3S,5R)-3-Ethoxy-8-((5-methoxy-7-methyl-1H-indol-4-yl)methyl)-8-azabicyclo[3.2.1]octan-1-yl)benzoyl)oxy)-3,4,5-trihydroxytetrahydro-2H-pyran-2-carboxylic acid]",IC50,[1],74.6 nM
same,IC50,[3],30 nM
CCO[C@H]1CCN(Cc2c(OC)cc(C)c3[nH]ccc23)[C@H](c2ccc(C(=O)O)cc2)C1 [LNP023],day from which statistical decreases in urine total protein/creatinine ratio began,[2]; 20 mg/kg orally twice daily,11 days
same,decrease in the ratio of total protein/creatinine in rat urine compared to the model group,[2]; 20 mg/kg orally twice daily,56.4%
same,decrease in rat serum iC3b+C3d compared to the model group,[2]; 20 mg/kg orally twice daily,62.2%
same,day from which statistical decreases in urine total protein/creatinine ratio began,[2]; 60 mg/kg orally twice daily,11 days
same,decrease in the ratio of total protein/creatinine in rat urine compared to the model group,[2]; 60 mg/kg orally twice daily,47.1%
same,decrease in rat serum iC3b+C3d compared to the model group,[2]; 60 mg/kg orally twice daily,68.8%
same,dose dependence of the decrease in urine total protein/creatinine ratio,"[2]; day 14, across dose groups",not significantly dose-dependent
same,decrease in LDH,"[4]; at 13 weeks, all the patients, LNP023 twice daily with eculizumab",34-81%
same,males with Hb>120 g/L,[4]; at 13 weeks,71%
same,tolerability,[4]; twice daily for at least 13 weeks with eculizumab,well tolerated
OMS721: humanized monoclonal antibody targeting the MASP-2 protein developed by Omeros Inc.,proteinuria index,IgAN patients,significantly improved
